Reference: patent publication US20060134056A1, “Use of alkylguanidines as cationic emulsifiers” (G[…], priority 2004, published 2006)

Test: storage stability of O/W emulsions
Type: physicochemical
Settings: O/W emulsion with 0.5% emulsifier; room temperature, 45° C. and freeze-thaw cycles (3×−15° C.)
Experimental: Here, it was paaticulaily surprising that stable emulsions were obtainale even at emulsifier concentrations of 0.5% stearylguanidinium acetate (6 months stability at room temperature, 45° C. and freeze-thaw cycles (3×−15° C.)).
In addition, emulsions 7 to 8 also illustrate the excellent emulsifying properties of other alkylguanidinium salts.

## CC(=O)O.CCCCCCCCCCCCCCCCCCNC(=N)N [stearylguanidinium acetate]
  stability of emulsion: 6 months
